In general, IC50 refers to the concentration that gives 50% inhibition. The low end stands for inhibition by little substance, the high end for a need for much substance.

The structures appear in SMILES notation.

One assay deals with neointima formation. The settings on record: rats; cited from earlier work.
A further assay deals with T1, CDK2/cyclinA (Homo sapiens, UniProt P24941).
T1 construct: purchased Millipore
Put plainly: CDK2/cyclinA IMAP fluorescence polarization kinase assay. Format: biochemical. Conditions: 4.68 μM ATP, two hours at room temperature. As to the method: (§1) Kinase assays were performed on recombinant purified enzymes using the non-radioactive IMAP fluorescence polarization assay format.
(§2) Compound stocks were prepared and diluted in DMSO and were added to kinase reactions at a 1/100 dilution for a final concentration of 1% DMSO. The components were added together to final concentrations listed in the tables below and incubated for two hours at room temperature.
(§3) The reactions were stopped by addition of stop solution.
CDK2: final stop concentration is 1× Developer buffer (100% A), IMAP beads 1/400
(§4) The samples were allowed to incubate for one more hour at room temperature and then the fluorescence polarization was measured. The plate normalized millipolarization (mP) values were plotted against the log of compound concentration for each compound and IC50 values were calculated using the spotfire IC50 calculator and confirmed by visual analysis.
A general note: Fluorescence polarisation rises when a labelled molecule tumbles more slowly, as on binding a larger partner.

The target of a further assay is T2, CDK9/cyclinT1 (Homo sapiens, UniProt P50750).
T2 construct: purchased Millipore
T2 sequence (P50750 whole entry): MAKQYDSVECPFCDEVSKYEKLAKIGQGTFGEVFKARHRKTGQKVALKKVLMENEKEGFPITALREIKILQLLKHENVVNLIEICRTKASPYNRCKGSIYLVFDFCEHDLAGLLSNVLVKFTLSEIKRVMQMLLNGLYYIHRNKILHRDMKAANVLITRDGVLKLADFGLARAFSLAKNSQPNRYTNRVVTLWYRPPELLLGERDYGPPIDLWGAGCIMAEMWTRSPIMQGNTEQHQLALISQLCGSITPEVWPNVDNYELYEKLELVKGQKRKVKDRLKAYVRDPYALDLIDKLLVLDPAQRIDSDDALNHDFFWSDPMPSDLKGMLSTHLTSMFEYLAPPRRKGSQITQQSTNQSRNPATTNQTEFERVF
T2 sequence (O60563 whole entry partner): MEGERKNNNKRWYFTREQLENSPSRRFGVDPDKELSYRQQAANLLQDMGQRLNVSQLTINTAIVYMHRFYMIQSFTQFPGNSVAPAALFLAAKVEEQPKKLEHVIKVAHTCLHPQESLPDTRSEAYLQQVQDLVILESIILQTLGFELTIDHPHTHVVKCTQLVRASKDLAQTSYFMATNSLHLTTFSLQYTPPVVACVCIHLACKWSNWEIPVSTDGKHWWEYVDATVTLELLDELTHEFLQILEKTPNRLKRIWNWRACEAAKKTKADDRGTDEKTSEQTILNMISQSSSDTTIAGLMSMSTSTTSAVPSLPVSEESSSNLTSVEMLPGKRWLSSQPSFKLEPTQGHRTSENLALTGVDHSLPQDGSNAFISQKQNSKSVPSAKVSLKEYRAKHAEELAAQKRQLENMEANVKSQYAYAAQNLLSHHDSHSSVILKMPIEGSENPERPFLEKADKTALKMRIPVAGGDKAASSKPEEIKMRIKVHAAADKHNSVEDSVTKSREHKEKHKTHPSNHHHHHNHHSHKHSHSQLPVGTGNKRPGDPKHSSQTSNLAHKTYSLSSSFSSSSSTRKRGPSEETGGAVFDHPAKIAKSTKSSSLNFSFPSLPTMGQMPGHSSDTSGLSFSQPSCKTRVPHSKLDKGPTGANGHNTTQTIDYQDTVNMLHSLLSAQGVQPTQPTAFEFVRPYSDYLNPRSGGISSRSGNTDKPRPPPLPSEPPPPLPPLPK
The assay is described as follows: CDK9/cyclinT1 IMAP fluorescence polarization kinase assay. The settings on record: 6 μM ATP, two hours at room temperature. Format: biochemical. The method, then: as §1, §2, §3
(§5) CDK9/CDK1/CDK7: final stop concentration is 1× Developer buffer (85% A/15% B), IMAP beads 1/400
as §4

Another assay deals with T3, CDK7/cyclinH/MAT1 (Homo sapiens, UniProt P50613).
T3 construct: purchased Millipore
T3 sequence (P50613 whole entry): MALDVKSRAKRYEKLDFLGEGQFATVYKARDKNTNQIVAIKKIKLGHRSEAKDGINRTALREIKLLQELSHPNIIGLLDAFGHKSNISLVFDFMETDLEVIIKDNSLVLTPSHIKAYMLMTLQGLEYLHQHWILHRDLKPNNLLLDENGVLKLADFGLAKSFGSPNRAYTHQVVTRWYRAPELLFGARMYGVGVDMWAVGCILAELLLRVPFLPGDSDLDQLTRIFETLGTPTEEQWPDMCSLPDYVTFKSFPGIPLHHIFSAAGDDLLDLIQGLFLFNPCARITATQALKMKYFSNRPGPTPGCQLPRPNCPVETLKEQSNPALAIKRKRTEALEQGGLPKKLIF
T3 sequence (P51946 whole entry partner): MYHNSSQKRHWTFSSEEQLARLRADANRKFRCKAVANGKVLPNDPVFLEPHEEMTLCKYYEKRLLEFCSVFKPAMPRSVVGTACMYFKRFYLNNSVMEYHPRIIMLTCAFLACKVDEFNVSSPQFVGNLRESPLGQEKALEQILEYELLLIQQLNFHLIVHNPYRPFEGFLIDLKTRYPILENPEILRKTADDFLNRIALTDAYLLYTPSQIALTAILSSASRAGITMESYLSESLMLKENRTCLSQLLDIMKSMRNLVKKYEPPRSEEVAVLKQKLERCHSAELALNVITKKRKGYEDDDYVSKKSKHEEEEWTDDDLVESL
T3 sequence (P51948 whole entry partner): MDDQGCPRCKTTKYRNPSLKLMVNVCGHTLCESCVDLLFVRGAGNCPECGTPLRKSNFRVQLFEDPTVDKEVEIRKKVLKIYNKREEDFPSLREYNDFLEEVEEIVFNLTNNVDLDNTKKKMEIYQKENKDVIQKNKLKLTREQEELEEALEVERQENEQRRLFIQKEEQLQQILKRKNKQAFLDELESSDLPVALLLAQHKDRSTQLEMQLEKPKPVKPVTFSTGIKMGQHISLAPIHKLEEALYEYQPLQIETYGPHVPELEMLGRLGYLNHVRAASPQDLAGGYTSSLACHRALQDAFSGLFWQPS
Put plainly: CDK7/cyclinH/Mat1 IMAP fluorescence polarization kinase assay. Conditions: 8.09 μM ATP, two hours at room temperature. Format: biochemical. The method, then: as §1, §2, §3, §5, §4

Assay [1] deals with RNA polymerase II CTD serine2 phosphorylation in Hep3B cells. Put plainly: H5 (Ser2) Ab High Content Screen: RNA polymerase II CTD serine2 phosphorylation Assay. In kind it is cell-based. Conditions: Homo sapiens, compounds for 2 hours, H5 antibody nuclear staining. The method, then: H5 (also referred as Ser2) Ab High Content Screen: RNA polymerase II CTD serine2 phosphorylation Assay
1. Cells are plated into 384 well plates: 30 μl of Hep3B cells (4,000 cells/30 μl) in DMEM with 3% FBS are plated into wells of a tissue culture treated clear bottomed 384 well plate. Cells are allowed to adhere during an overnight incubation.
2. Cells are treated with compounds for two hours: 10 μl of DMEM with 3% FBS is added to each well with a final concentration of DMSO equal to 1%. Cells are incubated with compounds for 2 hours.
3. Cells are fixed and permeabilized. Cells are washed with 30 mM HEPES pH=7.3 then fixed in 4% paraformaldehyde in 30 mM HEPES pH=7.3 for one hour at room temperature. The fix is removed by washing the cells with Tris buffered saline (TBS) and the cells are permeabilized by incubation in TBS with 0.5% triton X-100 for 30 minutes at room temperature. Triton is removed by washing the cells with TBS.
4. Cells are stained with H5 monoclonal antibody and nuclei are stained with Hoechst dye 33342: Block cells by incubating in TBS with 1% Bovine serum albumin (BSA) for one hour at room temperature. Incubate primary H5 Ab (1/250) overnight at 4 degrees in PBS with 1% BSA and 0.1% Tween-20. The next day wash cells with TBS. Add secondary antibody, anti-IgM labeled with cy5 (1/450), and Hoecsht dye 33342 (10 μg/ml) in TBS with 1% BSA and incubate one hour at room temperature. Wash cells with PBS.
5. Measure staining using the In-cell Analyzer system from GE Healthcare. Nuclei were located using the Hoecsht 33342 dye signal and H5 Antibody staining was quantified by measuring cy5 label. Nuclear intensity of H5 staining was plotted against the log of compound concentration for each compound and IC-50 values were calculated using the spotfire IC-50 calculator and confirmed by visual analysis.

A further assay addresses CDK4 (Homo sapiens, UniProt P11802). Put plainly: CDK4 kinase assay (IMAP fluorescence polarization). Format: biochemical. As to the method:
as §1, §2, §4

For a further assay, the target named is T4, CDK1/cyclinB (Homo sapiens, UniProt P06493).
T4 construct: purchased Millipore
T4 sequence (P06493 whole entry): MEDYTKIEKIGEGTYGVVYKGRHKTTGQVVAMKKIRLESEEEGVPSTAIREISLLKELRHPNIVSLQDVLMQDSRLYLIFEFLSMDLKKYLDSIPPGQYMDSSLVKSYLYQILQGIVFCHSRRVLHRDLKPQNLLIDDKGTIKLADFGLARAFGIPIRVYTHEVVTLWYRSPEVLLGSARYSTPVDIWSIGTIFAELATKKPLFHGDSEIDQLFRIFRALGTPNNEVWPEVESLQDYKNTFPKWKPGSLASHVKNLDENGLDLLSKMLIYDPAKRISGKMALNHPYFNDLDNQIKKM
T4 sequence (P14635 whole entry partner): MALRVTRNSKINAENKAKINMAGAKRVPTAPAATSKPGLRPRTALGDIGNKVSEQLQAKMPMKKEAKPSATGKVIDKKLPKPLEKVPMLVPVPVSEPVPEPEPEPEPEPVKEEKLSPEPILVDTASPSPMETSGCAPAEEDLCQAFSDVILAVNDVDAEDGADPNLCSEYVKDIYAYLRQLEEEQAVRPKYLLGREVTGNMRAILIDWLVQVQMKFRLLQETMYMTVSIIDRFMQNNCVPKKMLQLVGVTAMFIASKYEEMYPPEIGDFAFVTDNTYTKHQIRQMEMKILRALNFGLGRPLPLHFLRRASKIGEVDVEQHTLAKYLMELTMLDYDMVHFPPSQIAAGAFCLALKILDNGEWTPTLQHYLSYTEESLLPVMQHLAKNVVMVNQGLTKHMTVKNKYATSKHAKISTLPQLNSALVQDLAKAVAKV
Put plainly: CDK1/cyclinB IMAP fluorescence polarization kinase assay. Format: biochemical. Conditions: 52 μM ATP, two hours at room temperature. The method, then: as §1, §2, §3, §5, §4

In a further assay the target is CDK5 (Homo sapiens, UniProt Q00535). The assay is described as follows: CDK5 kinase assay (IMAP fluorescence polarization). In kind it is biochemical. The method, then: as §1, §2, §4
Sequence of CDK5 (Q00535 whole entry, species assumed): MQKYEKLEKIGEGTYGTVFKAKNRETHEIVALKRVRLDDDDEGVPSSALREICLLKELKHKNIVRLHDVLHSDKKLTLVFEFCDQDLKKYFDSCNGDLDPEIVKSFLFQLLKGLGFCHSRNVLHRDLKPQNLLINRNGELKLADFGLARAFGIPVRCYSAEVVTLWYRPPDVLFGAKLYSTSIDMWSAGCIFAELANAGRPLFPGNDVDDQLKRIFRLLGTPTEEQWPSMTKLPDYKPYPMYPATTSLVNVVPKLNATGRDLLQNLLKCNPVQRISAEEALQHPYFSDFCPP
Sequence of CDK5 (Q15078 whole entry partner, species assumed): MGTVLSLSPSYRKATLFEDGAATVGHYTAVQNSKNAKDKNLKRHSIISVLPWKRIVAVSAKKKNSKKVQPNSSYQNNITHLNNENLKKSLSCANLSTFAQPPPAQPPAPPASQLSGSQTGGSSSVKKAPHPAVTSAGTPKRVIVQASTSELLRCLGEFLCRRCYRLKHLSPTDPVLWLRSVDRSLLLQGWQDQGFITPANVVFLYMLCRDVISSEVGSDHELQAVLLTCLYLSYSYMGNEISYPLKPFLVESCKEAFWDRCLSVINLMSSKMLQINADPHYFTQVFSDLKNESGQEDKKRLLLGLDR

Sequence of CDK4 (P11802 whole entry, species assumed): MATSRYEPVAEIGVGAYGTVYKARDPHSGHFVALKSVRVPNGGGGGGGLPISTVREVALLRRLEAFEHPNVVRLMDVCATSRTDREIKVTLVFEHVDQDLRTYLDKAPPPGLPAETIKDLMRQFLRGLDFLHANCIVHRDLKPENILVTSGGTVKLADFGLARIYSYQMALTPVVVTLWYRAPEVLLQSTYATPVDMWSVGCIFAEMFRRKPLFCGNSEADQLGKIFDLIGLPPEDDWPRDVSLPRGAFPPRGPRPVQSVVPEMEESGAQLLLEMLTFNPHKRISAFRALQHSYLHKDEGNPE
Sequence of CDK4 (P24385 whole entry partner, species assumed): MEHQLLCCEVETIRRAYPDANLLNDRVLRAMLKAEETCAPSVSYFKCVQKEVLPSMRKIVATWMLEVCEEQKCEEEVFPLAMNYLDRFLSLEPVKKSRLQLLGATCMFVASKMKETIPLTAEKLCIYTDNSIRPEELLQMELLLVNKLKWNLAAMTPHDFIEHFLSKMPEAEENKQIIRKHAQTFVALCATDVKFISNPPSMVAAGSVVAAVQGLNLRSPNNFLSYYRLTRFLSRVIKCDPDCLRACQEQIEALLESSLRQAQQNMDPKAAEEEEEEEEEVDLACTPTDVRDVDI

Take `COc1ccc(CNc2nc(N(CCO)CCO)nc3c2ncn3C(C)C)cc1` [CVT-313]: the “inhibition of neointima formation” value in the assay on neointima formation is listed as “greater than 80%”.
Regarding `Cc1cnc(Nc2cccc(S(C)(=O)=O)c2)nc1-c1cccc2[nH]ccc12` [Compound 31, [4-(1H-Indol-4-yl)-5-methyl-pyrimidin-2-yl]-(3-methanesulfonyl-phenyl)-amine], the IC50 on CDK2/cyclinA is less than 5 µM; against CDK9/cyclinT1, less than 5 µM; at CDK7/cyclinH/MAT1, less than 5 µM; in assay [1], less than 5 µM; against CDK4, 5 to 15 µM; at CDK1/cyclinB, less than 5 µM. This compound also came in with an IC50 against CDK5 of less than 5 µM.
Turning to `Clc1cccc(Nc2nccc(-c3cccc4[nH]ccc34)n2)c1` [Compound 1, (3-Chloro-phenyl)-[4-(1H-indol-4-yl)-pyrimidin-2-yl]-amine], the IC50 was less than 5 µM at CDK9/cyclinT1; greater than 50 µM against CDK7/cyclinH/MAT1; less than 5 µM in assay [1]; 5 to 15 µM at CDK4; less than 5 µM against CDK1/cyclinB; less than 5 µM against CDK5.
Turning to `Cc1ccc2[nH]ccc2c1-c1ccnc(Nc2cccc(S(C)(=O)=O)c2)n1` [Compound 35, (3-Methanesulfonyl-phenyl)-[4-(5-methyl-1H-indol-4-yl)-pyrimidin-2-yl]-amine], the IC50 against CDK2/cyclinA was less than 5 µM; against CDK9/cyclinT1, less than 5 µM; against CDK4, 5 to 15 µM; on CDK1/cyclinB, less than 5 µM; against CDK5, less than 5 µM.
`Cc1cnc(Nc2cccc(S(N)(=O)=O)c2)nc1-c1cccc2[nH]ccc12` [Compound 32, 3-[4-(1H-Indol-4-yl)-5-methyl-pyrimidin-2-ylamino]-benzenesulfonamide]: the IC50 against CDK2/cyclinA, against CDK9/cyclinT1, against CDK4, against CDK1/cyclinB and against CDK5 was less than 5 µM each time.
Turning to `CS(=O)(=O)c1cccc(Nc2nccc(-c3cccc4[nH]ccc34)n2)c1` [Compound 2, [4-(1H-Indol-4-yl)-pyrimidin-2-yl]-(3-methanesulfonyl-phenyl)-amine], the IC50 (at CDK2/cyclinA; against CDK9/cyclinT1; against CDK7/cyclinH/MAT1; in assay [1]; at CDK4; against CDK1/cyclinB) was less than 5 µM each time. The same compound registered an IC50 against CDK5 of less than 5 µM.
Turning to `CCNC(=O)Cn1ccc2c(-c3ccnc(Nc4cccc(Cl)c4)n3)cccc21` [Compound 13, 2-{4-[2-(3-Chloro-phenylamino)-pyrimidin-4-yl]-indol-1-yl}-N-ethyl-acetamide], the IC50 is less than 5 µM against CDK9/cyclinT1, greater than 50 µM on CDK7/cyclinH/MAT1, less than 5 µM in assay [1] and greater than 50 µM on CDK1/cyclinB.
With `Clc1cccc(Nc2nccc(-c3cccc4c3ccn4CCN3CCOCC3)n2)c1` [Compound 9, (3-Chloro-phenyl)-{4-[1-(2-morpholin-4-yl-ethyl)-1H-indol-4-yl]-pyrimidin-2-yl}-amine], the IC50 at CDK2/cyclinA is 5 to 15 µM; against CDK9/cyclinT1 it was less than 5 µM; in assay [1] it was 15 to 50 µM; on CDK1/cyclinB it was greater than 50 µM.
With `O=C(Cn1ccc2c(-c3ccnc(Nc4cccc(Cl)c4)n3)cccc21)NCCN1CCCC1` [Compound 23, 2-{4-[2-(3-Chloro-phenylamino)-pyrimidin-4-yl]-indol-1-yl}-N-(2-pyrrolidin-1-yl-ethyl)-acetamide], the IC50 is greater than 50 µM against CDK2/cyclinA, less than 5 µM against CDK9/cyclinT1 and 15 to 50 µM at CDK1/cyclinB.

The values above are taken from US20100093776A1, “Organic Compounds and Their Uses” (Novartis AG, priority 2006, published 2010).
